From ChEMBL document CHEMBL1149774, “Synthesis of N-(5,7-diamino-3-phenyl-quinoxalin-2-yl)-3,4,5-substituted anilines and N-[4[(5,7-diamino-3-phenylquinoxalin-2-yl)amino]benzoyl]-l-glutamic acid diethyl ester: evaluation of in vitro anti-cancer and anti-folate activities” (Eur J Med Chem, 2008)

What was measured:
Assay type in all cases: functional
HOP-62 = experiment: Growth inhibition of human HOP62 cells after 48 hrs by SRB staining method; conditions: HOP-62, 48 h
NCI-H226 = experiment: Growth inhibition of human NCI-H226 cells after 48 hrs by SRB staining method; conditions: NCI-H226, 48 h
NCI-H23 = experiment: Growth inhibition of human NCI-H23 cells after 48 hrs by SRB staining method; conditions: NCI-H23, 48 h
NCI-H460 = experiment: Growth inhibition of human NCI-H460 cells after 48 hrs by SRB staining method; conditions: NCI-H460, 48 h
NCI-H522 = experiment: Growth inhibition of human NCI-H522 cells after 48 hrs by SRB staining method; conditions: NCI-H522, 48 h
HCT-15 = experiment: Growth inhibition of human HCT15 cells after 48 hrs by SRB staining method; conditions: HCT-15, 48 h
KM12 = experiment: Growth inhibition of human KM12 cells after 48 hrs by SRB staining method; conditions: KM12, 48 h
SF-295 = experiment: Growth inhibition of human SF295 cells after 48 hrs by SRB staining method; conditions: SF-295, 48 h
SNB-19 = experiment: Growth inhibition of human SNB19 cells after 48 hrs by SRB staining method; conditions: SNB-19, 48 h
LOX IMVI = experiment: Growth inhibition of human LOX IMVI cells after 48 hrs by SRB staining method
M14 = experiment: Growth inhibition of human M14 cells after 48 hrs by SRB staining method; conditions: M14, 48 h
SK-MEL-2 = experiment: Growth inhibition of human SK-MEL-2 cells after 48 hrs by SRB staining method; conditions: SK-MEL-2, 48 h
SK-MEL-5 = experiment: Growth inhibition of human SK-MEL-5 cells after 48 hrs by SRB staining method; conditions: SK-MEL-5, 48 h
UACC-257 = experiment: Growth inhibition of human UACC257 cells after 48 hrs by SRB staining method; conditions: UACC-257, 48 h
UACC-62 = experiment: Growth inhibition of human UACC62 cells after 48 hrs by SRB staining method; conditions: UACC-62, 48 h
IGROV-1 = experiment: Growth inhibition of human IGROV1 cells after 48 hrs by SRB staining method; conditions: IGROV-1, 48 h
OVCAR-4 = experiment: Growth inhibition of human OVCAR4 cells after 48 hrs by SRB staining method; conditions: OVCAR-4, 48 h
SK-OV-3 = experiment: Growth inhibition of human SKOV3 cells after 48 hrs by SRB staining method; conditions: SK-OV-3, 48 h
786-0 = experiment: Growth inhibition of human 786-0 cells after 48 hrs by SRB staining method; conditions: 786-0, 48 h
A498 = experiment: Growth inhibition of human A498 cells after 48 hrs by SRB staining method; conditions: A498, 48 h
ACHN = experiment: Growth inhibition of human ACHN cells after 48 hrs by SRB staining method
RXF 393 = experiment: Growth inhibition of human RXF393 cells after 48 hrs by SRB staining method; conditions: RXF 393, 48 h
SN12C = experiment: Growth inhibition of human SN12C cells after 48 hrs by SRB staining method
UO-31 = experiment: Growth inhibition of human UO31 cells after 48 hrs by SRB staining method; conditions: UO-31, 48 h
PC-3 = experiment: Growth inhibition of human PC3 cells after 48 hrs by SRB staining method; conditions: PC-3, 48 h
DU-145 = experiment: Growth inhibition of human DU145 cells after 48 hrs by SRB staining method; conditions: DU-145, 48 h
MCF7 = experiment: Growth inhibition of human MCF7 cells after 48 hrs by SRB staining method; conditions: MCF7, 48 h
NCI/ADR-RES = experiment: Growth inhibition of human NCI/ADR-RES cells after 48 hrs by SRB staining method
[1] = Growth inhibition of human HS 578T cells after 48 hrs by SRB staining method
MDA-MB-435 = experiment: Growth inhibition of human MDA-MB-435 cells after 48 hrs by SRB staining method; conditions: MDA-MB-435, 48 h
HL-60 = experiment: Growth inhibition of human HL60 cells after 48 hrs by SRB staining method; conditions: HL-60, 48 h
[2] = read-out: pLC50 (the source's name) (converted)

Q: With Nc1cc(N)c2nc(-c3ccccc3)c(Nc3ccc(F)cc3)nc2c1 as the molecule, how does the GI50 (HOP-62) read?
A: Its GI50 is 38 µM.

Q: And the TGI (HOP-62; read-out: pTGI (converted))?
A: Its TGI is greater than 100 µM.

Q: What about the GI50 (NCI-H226) of the same molecule?
A: The GI50 was 17.8 µM.

Q: What about the TGI (NCI-H226; read-out: pTGI (converted)) of the same molecule?
A: Its TGI is 47.9 µM.

Q: And the GI50 (NCI-H23)?
A: The GI50 was 22.4 µM.

Q: What about the TGI (NCI-H23; read-out: pTGI (converted)) of the same molecule?
A: The TGI was 49 µM.

Q: What about the GI50 (NCI-H460) of the same molecule?
A: The GI50 was 26.3 µM.

Q: What about the TGI (NCI-H460; read-out: pTGI (converted)) of the same molecule?
A: The TGI was greater than 100 µM.

Q: And the GI50 (NCI-H522)?
A: Its GI50 is greater than 100 µM.

Q: And the TGI (NCI-H522; read-out: pTGI (converted))?
A: The TGI was greater than 100 µM.

Q: And the GI50 (HCT-15)?
A: The GI50 was 12.6 µM.

Q: And the TGI (HCT-15; read-out: pTGI (converted))?
A: Its TGI is 38 µM.

Q: What about the GI50 (KM12) of the same molecule?
A: The GI50 was 12 µM.

Q: And the TGI (KM12; read-out: pTGI (converted))?
A: Its TGI is 29.5 µM.

Q: And the GI50 (SF-295)?
A: The GI50 was 14.5 µM.

Q: What about the TGI (SF-295; read-out: pTGI (converted)) of the same molecule?
A: Its TGI is 32.4 µM.

Q: And the GI50 (SNB-19)?
A: Its GI50 is 21.9 µM.

Q: And the TGI (SNB-19; read-out: pTGI (converted))?
A: Its TGI is 39.8 µM.

Q: What about the GI50 (LOX IMVI) of the same molecule?
A: Its GI50 is 4.79 µM.

Q: And the TGI (LOX IMVI; read-out: pTGI (converted))?
A: Its TGI is 18.2 µM.

Q: What about the GI50 (M14) of the same molecule?
A: Its GI50 is 16.2 µM.

Q: And the TGI (M14; read-out: pTGI (converted))?
A: Its TGI is 43.7 µM.

Q: And the GI50 (SK-MEL-2)?
A: The GI50 was 29.5 µM.

Q: And the TGI (SK-MEL-2; read-out: pTGI (converted))?
A: The TGI was greater than 100 µM.

Q: What about the GI50 (SK-MEL-5) of the same molecule?
A: The GI50 was 14.5 µM.

Q: And the TGI (SK-MEL-5; read-out: pTGI (converted))?
A: Its TGI is 33.1 µM.

Q: And the GI50 (UACC-257)?
A: Its GI50 is 15.1 µM.

Q: What about the TGI (UACC-257; read-out: pTGI (converted)) of the same molecule?
A: Its TGI is 28.8 µM.

Q: And the GI50 (UACC-62)?
A: Its GI50 is 16.2 µM.

Q: And the TGI (UACC-62; read-out: pTGI (converted))?
A: Its TGI is 31.6 µM.

Q: What about the GI50 (IGROV-1) of the same molecule?
A: The GI50 was 16.6 µM.

Q: And the TGI (IGROV-1; read-out: pTGI (converted))?
A: The TGI was greater than 100 µM.

Q: And the GI50 (OVCAR-4)?
A: Its GI50 is 13.5 µM.

Q: What about the TGI (OVCAR-4; read-out: pTGI (converted)) of the same molecule?
A: Its TGI is 49 µM.

Q: What about the GI50 (SK-OV-3) of the same molecule?
A: The GI50 was 40.7 µM.

Q: What about the CC50 (SK-OV-3; [2]) of the same molecule?
A: The CC50 was greater than 100 µM.

Q: And the TGI (SK-OV-3; read-out: pTGI (converted))?
A: The TGI was greater than 100 µM.

Q: What about the GI50 (786-0) of the same molecule?
A: The GI50 was 17.4 µM.

Q: What about the CC50 (786-0; [2]) of the same molecule?
A: The CC50 was greater than 100 µM.

Q: What about the TGI (786-0; read-out: pTGI (converted)) of the same molecule?
A: The TGI was 53.7 µM.

Q: And the GI50 (A498)?
A: Its GI50 is 17.4 µM.

Q: And the CC50 (A498; [2])?
A: The CC50 was 66.1 µM.

Q: And the TGI (A498; read-out: pTGI (converted))?
A: The TGI was 20 µM.

Q: And the GI50 (ACHN)?
A: Its GI50 is 10.2 µM.

Q: And the CC50 (ACHN; [2])?
A: Its CC50 is 49 µM.

Q: And the TGI (ACHN; read-out: pTGI (converted))?
A: Its TGI is 22.4 µM.

Q: What about the GI50 (RXF 393) of the same molecule?
A: Its GI50 is 8.71 µM.

Q: What about the CC50 (RXF 393; [2]) of the same molecule?
A: Its CC50 is 85.1 µM.

Q: And the TGI (RXF 393; read-out: pTGI (converted))?
A: Its TGI is 28.8 µM.

Q: And the GI50 (SN12C)?
A: Its GI50 is 15.8 µM.

Q: What about the CC50 (SN12C; [2]) of the same molecule?
A: Its CC50 is 74.1 µM.

Q: What about the TGI (SN12C; read-out: pTGI (converted)) of the same molecule?
A: The TGI was 33.9 µM.

Q: What about the GI50 (UO-31) of the same molecule?
A: The GI50 was 17 µM.

Q: And the CC50 (UO-31; [2])?
A: Its CC50 is greater than 100 µM.

Q: What about the TGI (UO-31; read-out: pTGI (converted)) of the same molecule?
A: Its TGI is 61.7 µM.

Q: What about the GI50 (PC-3) of the same molecule?
A: The GI50 was 11.7 µM.

Q: And the CC50 (PC-3; [2])?
A: Its CC50 is greater than 100 µM.

Q: And the TGI (PC-3; read-out: pTGI (converted))?
A: Its TGI is greater than 100 µM.

Q: What about the GI50 (DU-145) of the same molecule?
A: The GI50 was 12 µM.

Q: And the CC50 (DU-145; [2])?
A: Its CC50 is 66.1 µM.

Q: And the TGI (DU-145; read-out: pTGI (converted))?
A: The TGI was 28.2 µM.

Q: And the GI50 (MCF7)?
A: The GI50 was 12.6 µM.

Q: And the CC50 (MCF7; [2])?
A: The CC50 was greater than 100 µM.

Q: And the TGI (MCF7; read-out: pTGI (converted))?
A: The TGI was greater than 100 µM.

Q: And the GI50 (NCI/ADR-RES)?
A: Its GI50 is 24 µM.

Q: And the CC50 (NCI/ADR-RES; [2])?
A: Its CC50 is greater than 100 µM.

Q: What about the TGI (NCI/ADR-RES; read-out: pTGI (converted)) of the same molecule?
A: The TGI was 57.5 µM.

Q: And the GI50 [1]?
A: The GI50 was 19.1 µM.

Q: What about the CC50 [1, 2] of the same molecule?
A: The CC50 was greater than 100 µM.

Q: What about the TGI ([1]; read-out: pTGI (converted)) of the same molecule?
A: The TGI was 58.9 µM.

Q: What about the GI50 (MDA-MB-435) of the same molecule?
A: The GI50 was 7.41 µM.

Q: And the CC50 (MDA-MB-435; [2])?
A: The CC50 was 50.1 µM.

Q: What about the TGI (MDA-MB-435; read-out: pTGI (converted)) of the same molecule?
A: Its TGI is 20.9 µM.

Q: And the GI50 (HL-60)?
A: Its GI50 is 11.2 µM.

Q: And the CC50 (HL-60; [2])?
A: The CC50 was greater than 100 µM.

Q: What about the TGI (HL-60; read-out: pTGI (converted)) of the same molecule?
A: Its TGI is greater than 100 µM.
